From the text: The term “solubility” used herein in regard to water solubility includes cases where the sample completely dissolves in deionized water to form a homogeneous mixture, and cases where the sample is completely emulsified. Here, “completely” means that no mass of the sample remains in the deionized water.

Compound	Water solubility [g]	Water solubility (g)
CCCCOC(=O)CC(CC(=O)OCCCC)(OC(C)=O)C(=O)OCCCC [Tributyl O-acetylcitrate]	<0.05	
CCCCC(CC)C(=O)OCC(C)(C)COC(=O)C(CC)CCCC (stereo not drawn) [H-208BRS, Neopentyl glycol di(2-ethylhexanoate)]	<0.05	
CCCCCCCCCCCC(=O)OCC(O)CO (stereo not drawn) [90-L2 Lauric acid monoglyceride, lauric acid monoglyceride]		20< g
CCCCCCCC(=O)OCC(COC(=O)CCCCCCC)OC(=O)CCCCCCC [PANACET 800]	<0.05	
CC(C)CCCCCCCCCCCCCCCOC(=O)CC(O)C(=O)OCCCCCCCCCCCCCCCC(C)C (stereo not drawn) [Diisostearyl malate]		20< g
CCCCC(CC)C(=O)OCC(COC(=O)C(CC)CCCC)OC(=O)C(CC)CCCC (stereo not drawn) [PANACET 800B]	<0.05	

From patent US9314383B2, “Absorptive article” (UNICHARM CORPORATION, priority 2012, dated 2016)
